Test results published in patent US20250195510A1, “NOVEL METHODS” (priority 2022, published 2025).

How the values were obtained:
[1] = tested on: Sprague-Dawley rats; assay: Home cage feeding test (HCFT); format: in vivo, rat; settings: naïve rats, Luma 1 mg/kg IP days 1 and 3; control 6.0
Excerpt: Novelty Suppressed Feeding Test (NSFT). This test measures consumption of a familiar food in a novel environment, relying on rodents' aversion to eating in a novel environment after a period of food deprivation ([…] and Dulawa, “Identifying fast-onset antidepressants using rodent models,” Mol. Psychiatry 22:656-665 (2017)). Rats are food-deprived overnight and placed in an open field (76.5×76.5×40 cm^3) with a small amount of food pellets (6 pellets total). At the time of the test, rats are exposed to the open field for the first time (novelty) and allowed to explore it for a maximum of 15 minutes under red light. The latency for the animal to approach the food pellets and take its first bite is manually scored. A home cage feeding test (HCFT) is performed afterwards to ensure latency measured in NSFT is not a matter of difference in hunger. A home cage food intake analysis evaluated the amount of food eaten (in grams) over a period of 10 minutes following the end of the entire test session.

[2] = tested on: Hippocampal mRNA expression; assay: Hippocampal mRNA (qRT-PCR) after acute restraint stress; format: in vivo, mouse; settings: restraint stress 2 h + Luma 3 mg/kg IP; control 0, stressed −0.138
Procedure: Quantitative Real-Time PCR. […] Heavy phase-lock gel tubes enabled separation of phases following the addition of 400 μL chloroform to the sample and centrifugation at 12,000 rpm for 10 minutes at room temperature. RNA is extracted using Qiagen Rneasy kit (Qiagen, Hilden, Germany). For cDNA synthesis, 2 μg of total RNA is used (SuperScript IV Reverse Transcriptase; ThermoFisher Scientific, Waltham, MA). The purity and concentration of RNA is measured with a Nanodrop spectrophotometer; the optical density (OD) 260/280 and OD 260/230 are within 1.8-2.3. In the hippocampus, 4 key markers of pro- and anti-inflammatory cytokines and chemokines (Il1b: ID Mm00434228_m1, Tnfa: ID Mm00443258_m1, Il6: ID Mm00446190_m1, and Il10: ID Mm01288386_ml; ThermoFisher Scientific) are initially chosen for analysis (n=5-12 per group). […] Mm00840904_m1). […] All mRNAs are measured by qRT-PCR on ABI Prism 7900HT system using TaqMan Gene Expression Assays. […] The results are shown in Table 4B as relative change in mRNA levels for each cytokine gene (Il1b, Il6, Tnfa, Il10) normalized to the control group using the Dct method: Using similar procedures as described above, serum corticosterone levels and hippocampal Cldn5 mRNA expression are measured as well (corticosterone is measured using a commercial ELISA kit).

[3] = tested on: Sprague-Dawley rats; assay: Novelty Suppressed Feeding Test (NSFT); format: in vivo, rat; settings: naïve rats, Luma 1 mg/kg IP days 1 and 3, no LPS; control 657.8
Procedure: (§1) Behavioral Evaluation. All behavioral tests are performed in the morning with adult male Sprague-Dawley rats (n=9-11 per group for the experiments with LPS, and n=13-14 per group for the naïve rats).
Novelty Suppressed Feeding Test (NSFT). This test measures consumption of a familiar food in a novel environment, relying on rodents' aversion to eating in a novel environment after a period of food deprivation (Ramaker and Dulawa, “Identifying fast-onset antidepressants using rodent models,” Mol. Psychiatry 22:656-665 (2017)). Rats are food-deprived overnight and placed in an open field (76.5×76.5×40 cm^3) with a small amount of food pellets (6 pellets total). At the time of the test, rats are exposed to the open field for the first time (novelty) and allowed to explore it for a maximum of 15 minutes under red light. The latency for the animal to approach the food pellets and take its first bite is manually scored. A home cage feeding test (HCFT) is performed afterwards to ensure latency measured in NSFT is not a matter of difference in hunger. A home cage food intake analysis evaluated the amount of food eaten (in grams) over a period of 10 minutes following the end of the entire test session.
Basal levels of anxiety are also tested using 2 commonly used tests, NSFT and novelty induced hypophagia (NIH), in the absence of LPS. […]

[4] = tested on: Sprague-Dawley rats; assay: Open Field Test (OFT), locomotion; format: in vivo, rat
Procedure: as §1
Open Field Test (OFT). Rats are placed in an open field box (76.5×76.5×40 cm^3) under dim lighting and locomotor activity over a 10 minute period is measured using ANY-Maze Software (Stoelting Co., Wood Dale, IL).

[5] = tested on: Sprague-Dawley rats; assay: Female urine sniffing test (FUST), LPS-induced anhedonia; format: in vivo, rat; settings: LPS 1 mg/kg SC
Excerpt: All other reagents are obtained in the highest purity available from Sigma-Aldrich (St. Louis, MO) unless otherwise noted. […] Sigma-Aldrich, ref #0127: B8) diluted in 0.9% injectable saline while control group animals receive injections of all vehicles matching the experimental conditions. […] Behavioral Evaluation. […] Reward Sniffing Test (also known also as female urine sniffing test (FUST)): In this anhedonia-based assay, rats are brought to a well-ventilated testing room under dim lighting. A sterile cotton-tipped applicator is attached to one wall in the home cage for 1 hour to habituate rats to this new object. For the 2 phases of the 5 minute test, rats are first exposed to a new cotton tip dipped in sterile water as a control that is removed at the end of the 5 minutes; 45 minutes later, another cotton tip previously dipped into fresh rat urine collected from females of the same strain is attached to the cage wall. Male behavior is video recorded and latency to first sniff of the cotton tip and total time spent sniffing the cotton-tipped applicator are determined. In a pilot study, a dose response curve is conducted with varying doses of LPS to select an optimal dose for inducing an anhedonic response in rats. […] SC). […] Control rats are administered saline instead of LPS and vehicle instead of lumateperone. Anhedonia is assessed using FUST (female urine sniffing test) and measuring latency to sniff the reward combined with time spent sniffing the reward. Latency sniffing water is used as a control. The results are shown in the table below (time in seconds) with outliers removed using the MAD Method: […]

Question: What does the source list for `CN1CCN2c3c(cccc31)[C@@H]1CN(CCCC(=O)c3ccc(F)cc3)CC[C@@H]12` [Lumateperone, 4-((6bR,10aS)-3-methyl-2,3,6b,9,10,10a-hexahydro-1H-pyrido[3′,4′: 4,5]pyrrolo[1,2,3-de]quinoxaline-8 (7H)-yl)-1-(4-fluorophenyl)-1-butanone]?
Answer: Control HCFT food eaten [1]: 6.0 g; Hippocampal Cldn5 mRNA expression [2]: 0.330; NSFT latency to feed [3]: 507.9 s; OFT locomotion ([4]; naïve rats, Luma 1 mg/kg IP days 1 and 3, control 17.2): 32.8 m; OFT locomotion (distance travelled) ([4]; open field track length, rats, LPS 1 mg/kg SC + Luma 1 mg/kg IP, control 13.29, LPS + Vehicle 12.81): 12.27 meters; FUST Time sniffing reward ([5]; Luma 1 mg/kg IP 24 h before and 24 h after LPS, control 16.99, LPS + Vehicle 11.11): 17.38 s; FUST Latency sniffing reward ([5]; Luma 1 mg/kg IP 24 h before and 24 h after LPS, control 28.00, LPS + Vehicle 164.2): 68.13 s; FUST Latency sniffing water ([5]; control test, Luma 1 mg/kg IP before and after LPS, control 190.56, LPS + Vehicle 274.27): 207.60 s
